Experimental data published in patent US20200023000A1, “SYNERGISM OF GOS AND POLYFRUCTOSE” (N.V. Nutricia, priority 2004, published 2020).

Tests used:
[1] = test system: muc-2 expression in a CCD18/T84 co-culture; experiment: muc-2 expression in CCD18/T84 co-culture; assay type: cell-based
Method: (§1) The effect of lactate and a SCFA mixture was analysed as described in Willemsen, L E M, Koetsier M A, van Deventer S J H, van Tol E A F (2003), Gut 52:1442-1447, with the following modifications: Lactate and a mixture of acetate/propionate/butyrate 90/5/5 was tested. For the mucus production experiments a co-culture of CCD18 and T84 cells was used, whereas for the PGE1 and PGE2 production experiments a monoculture of CCD18 cells was used.

[2] = test system: PGE1 and PGE2 response in CCD18 cells; experiment: Spontaneous PGE1 and PGE2 response in CCD18 cells; assay type: cell-based; conditions: n=7
Method: as §1

[3] = test system: distal and proximal part of the colon; experiment: Contraction of isolated colon segments in organ bath; set-up: species or system Male Wistar rats; conditions: for Tension of tonic contractions (FIG. 5): increasing concentrations up to 100 mM, effect higher in distal than proximal colon
Source text: Male Wistar rats (CKP/Harlan, Wageningen/Horst, Netherlands) were housed under conditions of controlled temperature and light cycle and were provided free access to food pellets and water. Animals were anaesthetised by a mixture of N2O, O2 and isofluran, the abdomen was opened and the colon was removed immediately. The tissue was placed in Krebs-Henseleit buffer pH 7.4 (composition in mM: 118.0 NaCl, 4.75 KCl, 1.18 MgSO4, 2.5 CaCl2, 10 glucose, 1.17 KH2PO4 and 24.9 NaHCO3).
The colon was cut into a distal and a proximal portion and was rinsed with Krebs-Henseleit buffer while gently squeezing out faecal content. To approximate in vivo conditions as closely as possible, 1 cm fully intact segments were attached longitudinally to an isometric force transducer (F30 type 372, HSE, Germany) in 20 ml water-jacketed (37° C.) organ baths (Schuler, HSE, Germany) containing Krebs-Henseleit buffer gassed continuously with 95% O2-5% CO2. The segments were gradually stretched to a resting tension of 1 g and allowed to equilibrate for 45 minutes with intermittent washings. The tensions of the segments in rest and in response to different stimuli were amplified by a transducer amplifier module (HSE, Germany) and recorded on a multi-pen recorder (Rikadenki, HSE, Germany).
The segments were incubated with 40 mM KCl for 5 minutes and the contractile responses were measured. KCl was washed out by three consecutive washes at 5 minutes intervals. The segments were then incubated with increasing concentrations up to 100 mM of acetate or sodium-L-lactate. The acid solutions were prepared freshly in distilled water. NaOH was added to acetate to obtain a neutral pH. At the end of the incubation with a fatty acid, 40 mM KCl was added to determine whether the contractile response to KCl was influenced by the fatty acid. Before a new incubation the segments were allowed to equilibrate for 45 minutes in fresh Krebs-Henseleit buffer with intermittent washings.
The experimental protocol consisted of two proximal and two distal sections of the colon. For data analysis (n=3), the contraction level induced by the stimuli was defined as the tension in g after 5 minutes incubation. Data obtained from identical segments (proximal or distal) were used to calculate a mean value and each segment served as its own control sample.

[4] = proximal part of the colon, 25 mM
[5] = proximal part of the colon, concentrations higher than 25 mM

Row | Compound | Increase of muc-2 expression (FIG. 4a) ([1]; at 0.5, 1 and 4 mM, n=6) | MUC-2 expression, dose dependence (FIG. 4A) ([1]; co-culture of CCD18 and T84 cells) | Increase of PGE1 (FIG. 4b) ([2]; at 100 μM) | Increase of PGE2 (FIG. 4b) ([2]; at 250 μM, P<0.05) | Number of spontaneous (phasic) contractions ([3]; distal part of the colon) | Tension of tonic contractions (FIG. 5) [3] | Number of spontaneous (phasic) contractions ([3]; proximal part of the colon) | Tonic contractions as a response to KCl [3, 4] | Tonic contractions as a response to KCl [3, 5]
1 | C[C@H](O)C(=O)O [L-lactate] | statistically significant | dose dependently induces MUC-2 expression | statistically significant | statistically significant | – | – | – | – | –
2 | CC(=O)[O-].[Na+] [sodium acetate, reference compound] | – | – | – | – | no effects are observed | decrease the tension of tonic contractions | decrease | comparable in the presence or absence | significant relaxation
3 | C[C@H](O)C(=O)[O-].[Na+] [sodium-L-lactate] | – | – | – | – | no effects are observed | decrease the tension of tonic contractions | decrease | comparable in the presence or absence | significant relaxation
